Measurements taken from the supplement of paper PMC10307832.

What was measured:
Test in all cases: relative viability (nuclei count vs DMSO), 5 days (fraction); higher = more cells survive
[1] = compound: Nc1nc(Nc2ccc3c(c2)CC[C@@H](N2CCCC2)CC3)nn1-c1cc2c(nn1)-c1ccccc1CCC2 [Bemcentinib] + Nc1nc2[nH]cc(CCc3ccc(C(=O)N[C@@H](CCC(=O)O)C(=O)O)cc3)c2c(=O)[nH]1 [Pemetrexed] (partner 0.2 µM)
In short: (§1)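 A single step with final 0.05% Triton X-100, 1% formaldehyde and 1 ug/ml Hoechst fixed the cells and stained nuclei 5 days after treatment. Lung cancer cell lines in 1536-well plates had been treated by pin tool the day after seeding with one drug alone or a fixed anchor-drug dose plus five library-drug doses (not always all listed) in √10 steps, and nuclei were counted on 4× images. Relative viability is the ratio of nuclei in treated wells to nuclei in vehicle wells, taken as the median of duplicate plates.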

[2] = compound: Nc1nc(Nc2ccc3c(c2)CC[C@@H](N2CCCC2)CC3)nn1-c1cc2c(nn1)-c1ccccc1CCC2 [Bemcentinib] + COc1cccc2cc(-c3nc([C@H]4CC[C@H](C(=O)O)CC4)n4ncnc(N)c34)[nH]c12 [OSI-027] (partner 0.5 µM)
In short: as §1

[3] = compound: CNC(=O)c1ccccc1Sc1ccc2c(/C=C/c3ccccn3)n[nH]c2c1 [Axitinib] + C[C@]1(O)C[C@@H](c2nc(-c3ccc4ccc(-c5ccccc5)nc4c3)c3c(N)nccn32)C1 [Linsitinib] (partner 1 µM)
In short: as §1

[4] = compound: Nc1nc(Nc2ccc3c(c2)CC[C@@H](N2CCCC2)CC3)nn1-c1cc2c(nn1)-c1ccccc1CCC2 [Bemcentinib] + CCNC(=O)c1noc(-c2cc(C(C)C)c(O)cc2O)c1-c1ccc(CN2CCOCC2)cc1 [Luminespib] (partner 0.01 µM)
In short: as §1

Row | Cell Line | relative viability ([1]; first compound 0.04 µM) | relative viability ([1]; first compound 0.1265 µM) | relative viability ([1]; first compound 0.4 µM) | relative viability ([1]; first compound 1.265 µM) | relative viability ([1]; first compound 4 µM) | relative viability ([2]; first compound 0.04 µM) | relative viability ([2]; first compound 0.1265 µM) | relative viability ([2]; first compound 0.4 µM) | relative viability ([2]; first compound 1.265 µM) | relative viability ([2]; first compound 4 µM) | relative viability ([3]; first compound 0.005 µM) | relative viability ([3]; first compound 0.01581 µM) | relative viability ([3]; first compound 0.05 µM) | relative viability ([3]; first compound 0.1581 µM) | relative viability ([3]; first compound 0.5 µM) | relative viability ([4]; first compound 0.04 µM) | relative viability ([4]; first compound 0.1265 µM) | relative viability ([4]; first compound 0.4 µM) | relative viability ([4]; first compound 1.265 µM) | relative viability ([4]; first compound 4 µM)
1 | LU99A | 0.139 | 0.321 | 0.241 | 0.154 | 0.16 | 0.283 | 0.279 | 0.28 | 0.285 | 0.275 | 0.611 | 0.561 | 0.5 | 0.483 | 0.553 | 0.19 | 0.289 | 0.234 | 0.346 | 0.24
2 | LXF-289 | 0.907 | 0.974 | 0.984 | 0.993 | 0.92 | 0.744 | 0.837 | 0.782 | 0.801 | 0.819 | 0.991 | 0.952 | 0.972 | 0.962 | 0.968 | 0.74 | 0.78 | 0.703 | 0.653 | 0.665
3 | NCI-H23 | 0.626 | 0.724 | 0.941 | 0.763 | 0.738 | 0.581 | 0.612 | 0.713 | 0.447 | 0.684 | 0.66 | 0.618 | 0.653 | 0.587 | 0.721 | 0.197 | 0.233 | 0.192 | 0.224 | 0.214
4 | NCI-H322M | 0.625 | 0.633 | 0.659 | 0.704 | 0.618 | 0.585 | 0.596 | 0.597 | 0.621 | 0.597 | 0.932 | 0.897 | 0.892 | 0.889 | 0.827 | 0.828 | 0.943 | 0.835 | 0.817 | 0.804
5 | NCI-H358 | 0.176 | 0.177 | 0.166 | 0.187 | 0.179 | 0.799 | 0.952 | 0.837 | 0.99 | 0.939 | 0.729 | 0.803 | 0.852 | 0.727 | 0.848 | 0.319 | 0.335 | 0.303 | 0.247 | 0.369
6 | NCI-H441 | 0.24 | 0.243 | 0.267 | 0.245 | 0.275 | 0.583 | 0.695 | 0.765 | 0.558 | 0.659 | 0.593 | 0.52 | 0.519 | 0.582 | 0.576 | 0.354 | 0.485 | 0.303 | 0.469 | 0.321
7 | NCI-H460 | 0.0651 | 0.0562 | 0.0565 | 0.0602 | 0.0631 | 0.73 | 1.2 | 0.827 | 0.686 | 0.851 | 0.94 | 0.875 | 0.861 | 0.716 | 0.854 | 0.0301 | 0.0417 | 0.0326 | 0.0332 | 0.0269
8 | NCI-H520 | 0.65 | 0.848 | 0.788 | 0.686 | 0.785 | 0.237 | 0.24 | 0.262 | 0.247 | 0.258 | 0.972 | 0.996 | 0.989 | 0.84 | 1.03 | 0.248 | 0.191 | 0.252 | 0.23 | 0.303
9 | NCI-H596 | 0.477 | 0.53 | 0.55 | 0.478 | 0.474 | 0.739 | 0.665 | 0.707 | 0.757 | 0.802 | 1.15 | 1.1 | 1.24 | 1.16 | 1.03 | 0.893 | 1.12 | 1.23 | 1.27 | 1.09
10 | NCI-H647 | 0.175 | 0.164 | 0.199 | 0.156 | 0.152 | 0.696 | 0.799 | 0.637 | 0.666 | 0.649 | 1.23 | 1.27 | 1.19 | 1.25 | 1.44 | 0.142 | 0.157 | 0.108 | 0.143 | 0.136
11 | NCI-H661 | 0.906 | 0.953 | 0.965 | 0.899 | 0.991 | 0.716 | 0.719 | 0.762 | 0.775 | 0.745 | 0.717 | 0.58 | 0.418 | 0.542 | 0.666 | 0.87 | 0.961 | 0.895 | 0.963 | 0.987
12 | NCI-H838 | 0.229 | 0.267 | 0.272 | 0.257 | 0.262 | 0.38 | 0.434 | 0.371 | 0.442 | 0.372 | 1.04 | 1.01 | 1.1 | 1 | 1.19 | 0.256 | 0.278 | 0.357 | 0.282 | 0.262
13 | NCI-H1355 | 1.06 | 1.16 | 1.13 | 1.03 | 1.04 | 0.379 | 0.412 | 0.46 | 0.399 | 0.44 | 0.834 | 0.811 | 0.845 | 0.865 | 0.819 | 0.771 | 0.823 | 0.737 | 0.673 | 0.758
14 | NCI-H1395 | – | 1.03 | 0.903 | 0.797 | 0.82 | 0.654 | 0.74 | 0.616 | 0.613 | 0.594 | 1.2 | 0.913 | 1.37 | 0.97 | 1.18 | 0.611 | 0.733 | 0.808 | 0.686 | 1
15 | NCI-H1437 | 0.305 | 0.323 | 0.322 | 0.362 | 0.331 | 0.884 | 0.845 | 0.995 | 0.961 | 0.915 | 1.02 | 1.07 | 1 | 0.898 | 0.797 | 1.12 | 1.24 | 1.15 | 1.07 | 1.11
16 | NCI-H1563 | 0.768 | 0.716 | 0.844 | 0.663 | 0.772 | 0.783 | 0.812 | 0.819 | 0.766 | 0.757 | 1.23 | 1.11 | 1.12 | 0.99 | 1.22 | 0.507 | 0.538 | 0.475 | 0.55 | 0.535
